Assay results reported in patent publication US20230399313A1, “BIOLOGICAL ACTIVITIES OF 5-(2-(4-(4-FLUORO-2-METHYL-1H-INDOL-5-YLOXY)-6-METHOXYQUINOLIN-7-YLOXY)ETHYL)-5-AZASPIRO[2.4]-HEPTAN-7-OL CRYSTALLINE, PHOSPHORIC ACID SALT AND ITS ENANTIOMERS” (Advenchen Pharmaceuticals, LLC, priority 2022, published 2023).

Columns and labels:
[1] = biological target: Flt1(h) (VEGFr1) (Homo sapiens, UniProt P17948); assay: Kinase inhibition; type: biochemical
Excerpt: (§1) In vitro tyrosine kinase inhibition activities can be measured via commercial resources. Some of these tests can also be contracted with Eurofin or Reaction Biology for screening.
(§2) For the kinase inhibition tests, receptor tyrosine kinases are selected from FGFR1(h), FGFR2(h), FGFR3(h), Flt1(h) (VEGFr1), Flt4(h) (VEGFr3), KDR(h) (VEGFr2), Aurora-B, PDGFRα(h) and PDGFRβ(h).

[2] = biological target: FGFR3(h) (Homo sapiens, UniProt P22607); assay: Kinase inhibition; type: biochemical
Chain of FGFR3(h) (P22607 23-806): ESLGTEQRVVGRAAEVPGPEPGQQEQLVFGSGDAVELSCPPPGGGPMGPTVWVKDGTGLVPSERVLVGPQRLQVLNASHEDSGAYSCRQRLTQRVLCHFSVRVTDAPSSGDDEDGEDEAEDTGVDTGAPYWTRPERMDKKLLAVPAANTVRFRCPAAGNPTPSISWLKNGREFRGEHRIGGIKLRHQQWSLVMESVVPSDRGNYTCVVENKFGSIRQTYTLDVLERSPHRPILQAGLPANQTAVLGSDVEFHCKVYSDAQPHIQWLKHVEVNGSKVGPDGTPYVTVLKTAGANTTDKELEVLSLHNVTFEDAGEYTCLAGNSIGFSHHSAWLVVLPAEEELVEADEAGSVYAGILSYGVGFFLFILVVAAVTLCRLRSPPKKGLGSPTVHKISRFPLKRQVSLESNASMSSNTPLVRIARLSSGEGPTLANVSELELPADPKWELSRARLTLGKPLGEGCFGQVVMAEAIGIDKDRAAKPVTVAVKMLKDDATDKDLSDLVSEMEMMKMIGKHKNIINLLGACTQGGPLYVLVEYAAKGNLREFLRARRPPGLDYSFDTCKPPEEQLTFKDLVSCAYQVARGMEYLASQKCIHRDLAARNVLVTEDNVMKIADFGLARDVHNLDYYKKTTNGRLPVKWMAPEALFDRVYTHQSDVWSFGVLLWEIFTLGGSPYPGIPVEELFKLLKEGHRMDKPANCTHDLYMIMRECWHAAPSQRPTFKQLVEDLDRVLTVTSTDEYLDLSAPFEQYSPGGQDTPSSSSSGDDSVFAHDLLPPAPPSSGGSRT
Excerpt: as §1, §2

[3] = biological target: Flt4(h) (VEGFr3) (Homo sapiens, UniProt P35916); assay: Kinase inhibition; type: biochemical
Chain of Flt4(h) (VEGFr3) (P35916 25-1363): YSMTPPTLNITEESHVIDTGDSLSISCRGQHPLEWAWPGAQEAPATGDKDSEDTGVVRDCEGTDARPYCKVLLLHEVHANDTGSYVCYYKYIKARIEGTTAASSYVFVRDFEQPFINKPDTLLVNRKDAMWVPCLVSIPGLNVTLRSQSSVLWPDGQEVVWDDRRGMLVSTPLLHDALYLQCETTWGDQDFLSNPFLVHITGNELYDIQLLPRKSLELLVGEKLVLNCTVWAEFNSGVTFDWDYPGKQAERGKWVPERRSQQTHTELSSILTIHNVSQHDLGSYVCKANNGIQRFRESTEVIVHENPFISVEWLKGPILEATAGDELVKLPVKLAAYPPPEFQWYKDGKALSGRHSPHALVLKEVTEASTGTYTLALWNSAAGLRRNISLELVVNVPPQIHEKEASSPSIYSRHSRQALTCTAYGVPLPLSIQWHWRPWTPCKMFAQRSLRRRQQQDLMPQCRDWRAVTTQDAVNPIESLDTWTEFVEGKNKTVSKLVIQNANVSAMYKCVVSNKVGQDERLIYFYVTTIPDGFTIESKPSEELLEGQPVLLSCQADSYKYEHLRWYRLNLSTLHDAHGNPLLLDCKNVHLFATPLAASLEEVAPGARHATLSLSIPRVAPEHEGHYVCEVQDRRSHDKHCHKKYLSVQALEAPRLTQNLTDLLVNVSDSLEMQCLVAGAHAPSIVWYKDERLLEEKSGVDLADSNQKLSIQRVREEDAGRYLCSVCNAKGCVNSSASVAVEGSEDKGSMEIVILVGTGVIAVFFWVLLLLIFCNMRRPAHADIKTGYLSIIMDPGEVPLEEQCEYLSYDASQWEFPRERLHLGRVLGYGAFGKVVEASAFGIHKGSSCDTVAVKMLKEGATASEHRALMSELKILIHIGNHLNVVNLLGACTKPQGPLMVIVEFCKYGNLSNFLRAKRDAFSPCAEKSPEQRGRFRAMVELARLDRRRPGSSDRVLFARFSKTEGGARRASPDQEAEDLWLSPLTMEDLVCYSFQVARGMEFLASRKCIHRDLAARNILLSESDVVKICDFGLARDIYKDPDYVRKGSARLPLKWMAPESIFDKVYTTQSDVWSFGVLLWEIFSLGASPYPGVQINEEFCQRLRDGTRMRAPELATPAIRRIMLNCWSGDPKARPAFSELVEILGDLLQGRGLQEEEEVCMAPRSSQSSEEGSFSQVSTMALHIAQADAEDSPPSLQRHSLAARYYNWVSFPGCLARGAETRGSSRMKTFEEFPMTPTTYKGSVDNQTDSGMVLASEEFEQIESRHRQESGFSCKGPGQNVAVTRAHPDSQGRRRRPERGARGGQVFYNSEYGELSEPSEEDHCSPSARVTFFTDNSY
Excerpt: as §1, §2

[4] = biological target: Aurora-B (Homo sapiens, UniProt Q96GD4); assay: Kinase inhibition; type: biochemical
Chain of Aurora-B (Q96GD4 whole entry): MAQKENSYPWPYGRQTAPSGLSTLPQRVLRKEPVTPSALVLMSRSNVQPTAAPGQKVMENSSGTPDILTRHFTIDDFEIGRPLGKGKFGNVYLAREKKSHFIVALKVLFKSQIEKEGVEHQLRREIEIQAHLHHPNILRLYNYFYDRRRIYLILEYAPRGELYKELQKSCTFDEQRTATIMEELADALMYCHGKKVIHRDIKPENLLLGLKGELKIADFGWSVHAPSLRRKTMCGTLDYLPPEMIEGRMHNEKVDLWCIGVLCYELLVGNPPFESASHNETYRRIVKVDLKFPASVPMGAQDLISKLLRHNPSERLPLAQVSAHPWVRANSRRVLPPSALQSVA
Excerpt: as §1, §2

[5] = biological target: FGFR2(h) (Homo sapiens, UniProt P21802); assay: Kinase inhibition; type: biochemical
Chain of FGFR2(h) (P21802 22-821): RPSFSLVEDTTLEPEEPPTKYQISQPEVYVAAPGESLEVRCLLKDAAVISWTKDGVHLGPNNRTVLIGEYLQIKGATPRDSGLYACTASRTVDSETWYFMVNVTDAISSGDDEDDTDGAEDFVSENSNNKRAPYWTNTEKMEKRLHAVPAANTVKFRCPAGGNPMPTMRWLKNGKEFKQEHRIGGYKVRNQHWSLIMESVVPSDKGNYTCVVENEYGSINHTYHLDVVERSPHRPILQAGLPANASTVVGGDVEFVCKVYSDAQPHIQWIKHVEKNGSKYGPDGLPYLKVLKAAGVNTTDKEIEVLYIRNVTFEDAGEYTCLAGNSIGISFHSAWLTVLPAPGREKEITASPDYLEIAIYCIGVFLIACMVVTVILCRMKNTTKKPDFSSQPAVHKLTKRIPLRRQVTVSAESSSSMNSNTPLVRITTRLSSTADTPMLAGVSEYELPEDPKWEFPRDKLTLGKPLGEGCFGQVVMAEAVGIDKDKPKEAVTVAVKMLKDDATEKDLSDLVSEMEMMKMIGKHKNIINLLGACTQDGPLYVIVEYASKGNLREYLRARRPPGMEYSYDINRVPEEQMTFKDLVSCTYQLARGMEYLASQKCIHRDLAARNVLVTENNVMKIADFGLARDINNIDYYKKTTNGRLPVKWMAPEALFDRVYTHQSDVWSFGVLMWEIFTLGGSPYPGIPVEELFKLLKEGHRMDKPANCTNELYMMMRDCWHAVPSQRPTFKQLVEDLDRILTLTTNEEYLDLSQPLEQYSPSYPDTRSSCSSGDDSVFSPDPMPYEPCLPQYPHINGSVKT
Excerpt: as §1, §2

[6] = biological target: FGFR1(h) (Homo sapiens, UniProt P11362); assay: Kinase inhibition; type: biochemical
Excerpt: as §1, §2

[7] = test system: Molt-4; assay: In vitro MTT (proliferation) assay; type: cell-based; settings: Homo sapiens, Blood
[8] = test system: K562; assay: In vitro MTT (proliferation) assay; type: cell-based; settings: Homo sapiens, Blood
[9] = test system: HepG2; assay: In vitro MTT (proliferation) assay; type: cell-based; settings: Homo sapiens, Liver
[10] = test system: murine colorectal CT26 cell line; assay: Murine colorectal CT26 model, combination with anti-mouse PD-1 antibody; type: in vivo, mice; settings: for Mean tumor volume D0: D0 (first drug administration time, baseline); for Mean tumor volume D0 / Mean tumor volume D17 / T/C D17: CT26 mice
[11] = test system: SMMC-7721; assay: In vitro MTT (proliferation) assay; type: cell-based; settings: Homo sapiens, Liver
[12] = test system: breast cancer cell line BT474; assay: Combination therapy MTT assay; type: cell-based, human; settings: BT474, combined with aromatase inhibitors Anatrozole and Letrozole, 72 h
Description: (§3) Compound A-Xln combination therapy MTT assay results were investigated. 100 μl of cell suspension with a concentration of 5×10^4 cells/ml was added to each well of a 96-well plate, and place in a 37° C., 5% CO2 incubator. After 24 h, Compound A-Xln sample solution was added according to Table 13, 10 μl/well for double-duplicate wells. After 72 hours at 37° C. and 5% CO2 incubation, 20 μl of 5 mg/ml MTT solution was added to each well, then 100 µl/well of dissolving solution was added after 4 hours. The samples were put in an incubator, and a full-wavelength multifunctional enzyme label machine was used after dissolving. The OD value at 570 nm was measured.

[13] = test system: breast cancer cell line MCF7; assay: Combination therapy MTT assay; type: cell-based, human; settings: MCF7, combined with aromatase inhibitors Anatrozole and Letrozole, 72 h
Description: as §3

[14] = test system: HL-60; assay: In vitro MTT (proliferation) assay; type: cell-based; settings: Homo sapiens, Blood
[15] = biological target: PDGFRα(h) (Homo sapiens, UniProt P16234); assay: Kinase inhibition; type: biochemical
Chain of PDGFRα(h) (P16234 24-1089): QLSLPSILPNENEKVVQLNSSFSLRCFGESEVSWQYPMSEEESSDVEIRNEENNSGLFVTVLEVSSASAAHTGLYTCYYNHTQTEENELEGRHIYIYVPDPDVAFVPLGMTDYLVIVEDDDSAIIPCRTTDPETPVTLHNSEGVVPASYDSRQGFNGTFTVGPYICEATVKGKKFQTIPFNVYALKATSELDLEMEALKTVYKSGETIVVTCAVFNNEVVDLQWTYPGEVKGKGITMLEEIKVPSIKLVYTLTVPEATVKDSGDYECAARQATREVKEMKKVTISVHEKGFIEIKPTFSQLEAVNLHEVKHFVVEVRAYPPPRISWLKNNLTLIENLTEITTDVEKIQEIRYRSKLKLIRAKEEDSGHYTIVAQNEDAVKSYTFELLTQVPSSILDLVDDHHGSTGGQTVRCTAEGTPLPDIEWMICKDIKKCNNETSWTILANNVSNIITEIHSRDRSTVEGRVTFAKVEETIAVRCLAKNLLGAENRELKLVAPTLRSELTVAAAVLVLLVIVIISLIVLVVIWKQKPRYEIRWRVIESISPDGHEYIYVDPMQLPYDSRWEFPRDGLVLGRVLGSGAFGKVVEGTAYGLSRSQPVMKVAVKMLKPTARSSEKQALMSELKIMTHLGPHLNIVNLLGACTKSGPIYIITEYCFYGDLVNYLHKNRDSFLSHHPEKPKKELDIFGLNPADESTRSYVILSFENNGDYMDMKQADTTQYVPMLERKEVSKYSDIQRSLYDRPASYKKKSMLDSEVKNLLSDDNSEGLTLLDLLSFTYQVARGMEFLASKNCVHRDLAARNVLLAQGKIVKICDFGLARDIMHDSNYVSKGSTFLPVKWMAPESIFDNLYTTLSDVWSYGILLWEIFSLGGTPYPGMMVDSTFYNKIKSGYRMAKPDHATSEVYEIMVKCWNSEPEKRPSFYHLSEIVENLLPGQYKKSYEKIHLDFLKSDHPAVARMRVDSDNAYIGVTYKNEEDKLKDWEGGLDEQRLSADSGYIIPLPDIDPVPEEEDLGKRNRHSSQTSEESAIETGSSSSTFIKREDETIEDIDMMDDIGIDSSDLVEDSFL
Excerpt: […]. In vitro tyrosine kinase inhibition activities can be measured via commercial resources. Some of these tests can also be contracted with Eurofin or Reaction Biology for screening.
For the kinase inhibition tests, receptor tyrosine kinases are selected from FGFR1(h), FGFR2(h), FGFR3(h), Flt1(h) (VEGFr1), Flt4(h) (VEGFr3), KDR(h) (VEGFr2), Aurora-B, PDGFRα(h) and PDGFRβ(h). […] […].

[16] = test system: SKOV3; assay: In vitro MTT (proliferation) assay; type: cell-based; settings: Homo sapiens, SK-OV-3; Ovary, SKOV3; read-out: IC50
Description: (§4) The inhibitions of Compound A-Xln, Compound A-P-Xln and two chiral isomers (Compound R-A, Compound S-A) to cancer cell lines are tested via in vitro MTT assay. Cancer cell lines are selected from PANC-1, NCI-H157, MDA-MB-231, Hela, PC-3, BEL7404, MKN45, Ishikawa, Saos-2, SKOV3, SW579 and HCT116 cell lines. The IC50 values are in the micromole scale.
(§5) In vitro MTT (proliferation) assay was performed with compound from above examples to give following inhibition results: […]

[17] = test system: U937; assay: In vitro MTT (proliferation) assay; type: cell-based; settings: Homo sapiens, U-937, Blood
Description: as §4, §5

[18] = test system: Hela; assay: In vitro MTT (proliferation) assay; type: cell-based; settings: Homo sapiens; Cervix, Hela; read-out: IC50
Description: as §4, §5

[19] = test system: MDA-MB-231; assay: In vitro MTT (proliferation) assay; type: cell-based; settings: Homo sapiens; Breast, MDA-MB-231; read-out: IC50
Description: as §4, §5

[20] = test system: HCT-116; assay: In vitro MTT (proliferation) assay; type: cell-based; settings: Homo sapiens, Colon, read-out: IC50
Description: as §4, §5

[21] = test system: 95-D; assay: In vitro MTT (proliferation) assay; type: cell-based; settings: Lung

## COc1cc2c(Oc3ccc4[nH]c(C)cc4c3F)ccnc2cc1OCCN1CC(O)C2(CC2)C1 (stereo not drawn) [Compound A-Xln, 5-(2-(4-(4-fluoro-2-methyl-1H-indol-5-yloxy)-6-methoxyquinolin-7-yloxy)ethyl)-5-azaspiro[2.4]-heptan-7-ol]
[1]
  IC50: 0.004 µM
[2]
  IC50: 0.006 µM
[3]
  IC50: 0.002 µM
[4]
  IC50: 0.047 µM
[5]
  IC50: 0.008 µM
[6]
  IC50: 0.004 µM
[7]
  IC50: 5.53 ± 2.78 µM
[8]
  IC50: 6.37 ± 2.56 µM
[9]
  IC50: 9.12 ± 3.06 µM
[10]; 5 mg/kg/Qd i.g.
  Mean tumor volume D0: 127.8 mm^3
  Mean tumor volume D17: 1625.3 mm^3
  T/C D17: 72.04%
[10]; 15 mg/kg/Qd i.g.
  Mean tumor volume D0: 128.5 mm^3
  Mean tumor volume D17: 829.0 mm^3
  T/C D17: 36.67%
[10]; CT26 model, Compound A-Xln once daily plus anti-mouse PD-1 200 μg/mouse every 3 days
  Efficacy of combination treatment with an anti-PD1 antibody agent: increased efficacy
[11]
  IC50: 8.01 ± 2.53 µM
[12]
  Proliferation inhibition in combination: increased
[13]
  Proliferation inhibition in combination: increased
[14]
  IC50: 1.98 ± 1.13 µM
[15]
  IC50: 0.16 µM
[16]
  IC50: 17.1 ± 0.55 µM
[17]
  IC50: 10 ± 2.28 µM
[18]
  IC50: 11.2 ± 2.71 µM
[19]
  IC50: 7.77 ± 0.02 µM
[20]
  IC50: 11.7 ± 3.69 µM
[21]
  IC50: 4.92 ± 2.26 µM
